Several values for one entry are separate records, joined by “and”; a condition that tells them apart may be missing. Equal values may be shown once. Read-outs that look alike come from different tables or passages of the source.
Assay: Plasma concentrations and TK parameters, 72-hour continuous intravenous infusion
Format: in vivo, Sprague-Dawley rats
Conditions: male Sprague-Dawley rats; for concentration at 24 h / concentration at 48 h / concentration at 72 h / concentration at 78 h / concentration at 84 h / concentration at 96 h: male, Sprague-Dawley, rat, plasma, iv
Description: The safety and pharmacokinetics of PPTN (KB-1801) in rats receiving continuous intravenous injections of SBECD-containing solutions were analyzed. Three cohorts of six male and six female rats each were given continuous intravenous infusion of PPTN (KB-1801) at 10 mg/kg/day, 30 mg/kg/day or 100 mg/kg/day in a dosing solution containing PPTN at 0.25 mg/mL, 0.75 mg/mL or 2.5 mg/mL and SBECD at about 3.8%. Dosing volume was 40 mIkg/day. [table]

Compound: O=C(O)c1cc(-c2ccc(C3CCNCC3)cc2)c2ccc(-c3ccc(C(F)(F)F)cc3)cc2c1 [KB-1801, 4-[4-(piperidin-4-yl)phenyl]-7-[4-(trifluoromethyl)phenyl]-2-naphthoic acid]
- Plasma concentration, individual animal (72-hour intravenous infusion at 10 mg/kg/day, time 78 h, 10 mg/kg/day): 205.5 ng/mL and 170.5 ng/mL
- Plasma concentration, individual animal (72-hour intravenous infusion at 10 mg/kg/day, time 84 h, 10 mg/kg/day): 82.6 ng/mL and 128.1 ng/mL
- Plasma concentration, individual animal (72-hour intravenous infusion at 10 mg/kg/day, time 96 h, 10 mg/kg/day): 60.2 ng/mL and 45.0 ng/mL
- Plasma concentration, individual animal (72-hour intravenous infusion at 30 mg/kg/day, time 24 h, 30 mg/kg/day): 1855.0 ng/mL and 2482.4 ng/mL
- Plasma concentration, individual animal (72-hour intravenous infusion at 30 mg/kg/day, time 48 h, 30 mg/kg/day): 2175.6 ng/mL and 2510.8 ng/mL
- Plasma concentration, individual animal (72-hour intravenous infusion at 30 mg/kg/day, time 72 h, 30 mg/kg/day): 1871.2 ng/mL and 2031.5 ng/mL
- Plasma concentration, individual animal (72-hour intravenous infusion at 30 mg/kg/day, time 78 h, 30 mg/kg/day): 690.2 ng/mL and 818.5 ng/mL
- Plasma concentration, individual animal (72-hour intravenous infusion at 30 mg/kg/day, time 84 h, 30 mg/kg/day): 273.1 ng/mL and 309.1 ng/mL
- Plasma concentration, individual animal (72-hour intravenous infusion at 30 mg/kg/day, time 96 h, 30 mg/kg/day): 164.1 ng/mL and 213.1 ng/mL
- Plasma concentration, individual animal (72-hour intravenous infusion at 100 mg/kg, time 24 h, 100 mg/kg): 7597.9 ng/mL and 10702.8 ng/mL
- Plasma concentration, individual animal (72-hour intravenous infusion at 100 mg/kg, time 48 h, 100 mg/kg): 6182.8 ng/mL and 7504.3 ng/mL
- Plasma concentration, individual animal (72-hour intravenous infusion at 100 mg/kg, time 72 h, 100 mg/kg): 7768.2 ng/mL
- Plasma concentration, individual animal (72-hour intravenous infusion at 100 mg/kg, time 78 h, 100 mg/kg): 1893.5 ng/mL and 2808.6 ng/mL
- Plasma concentration, individual animal (72-hour intravenous infusion at 100 mg/kg, time 84 h, 100 mg/kg): 1818.2 ng/mL
- Plasma concentration, individual animal (72-hour intravenous infusion at 100 mg/kg, time 96 h, 100 mg/kg): 333.5 ng/mL and 482.1 ng/mL
- concentration at 24 h (10 mg/kg/day, 72-hour intravenous infusion at 10 mg/kg/day, time 24 h, read-out: Plasma concentration, Mean): 803 ng/mL
- concentration at 24 h (10 mg/kg/day, 72-hour intravenous infusion at 10 mg/kg/day, time 24 h, read-out: Plasma concentration, individual animal): 908 ng/mL
- concentration at 48 h (10 mg/kg/day, 72-hour intravenous infusion at 10 mg/kg/day, time 48 h, read-out: Plasma concentration, Mean): 602 ng/mL
- concentration at 48 h (10 mg/kg/day, 72-hour intravenous infusion at 10 mg/kg/day, time 48 h, read-out: Plasma concentration, individual animal): 515 ng/mL
- concentration at 72 h (10 mg/kg/day, 72-hour intravenous infusion at 10 mg/kg/day, time 72 h, read-out: Plasma concentration, Mean): 594 ng/mL
- concentration at 72 h (10 mg/kg/day, 72-hour intravenous infusion at 10 mg/kg/day, time 72 h, read-out: Plasma concentration, individual animal): 618 ng/mL
- concentration at 78 h (10 mg/kg/day, 72-hour intravenous infusion at 10 mg/kg/day, time 78 h, read-out: Plasma concentration, Mean): 208 ng/mL
- concentration at 78 h (10 mg/kg/day, 72-hour intravenous infusion at 10 mg/kg/day, time 78 h, read-out: Plasma concentration, individual animal): 249 ng/mL
- concentration at 84 h (10 mg/kg/day, 72-hour intravenous infusion at 10 mg/kg/day, time 84 h, read-out: Plasma concentration, Mean): 98.9 ng/mL
- concentration at 84 h (10 mg/kg/day, 72-hour intravenous infusion at 10 mg/kg/day, time 84 h, read-out: Plasma concentration, individual animal): 86 ng/mL
- concentration at 96 h (10 mg/kg/day, 72-hour intravenous infusion at 10 mg/kg/day, time 96 h, read-out: Plasma concentration, Mean): 55.1 ng/mL
- concentration at 96 h (10 mg/kg/day, 72-hour intravenous infusion at 10 mg/kg/day, time 96 h, read-out: Plasma concentration, individual animal): 60 ng/mL
- concentration at 24 h (30 mg/kg/day, 72-hour intravenous infusion at 30 mg/kg/day, time 24 h, read-out: Plasma concentration, Mean): 1950 ng/mL
- concentration at 24 h (30 mg/kg/day, 72-hour intravenous infusion at 30 mg/kg/day, time 24 h, read-out: Plasma concentration, individual animal): 1520 ng/mL
- concentration at 48 h (30 mg/kg/day, 72-hour intravenous infusion at 30 mg/kg/day, time 48 h, read-out: Plasma concentration, Mean): 2500 ng/mL
- concentration at 48 h (30 mg/kg/day, 72-hour intravenous infusion at 30 mg/kg/day, time 48 h, read-out: Plasma concentration, individual animal): 2800 ng/mL
- concentration at 72 h (30 mg/kg/day, 72-hour intravenous infusion at 30 mg/kg/day, time 72 h, read-out: Plasma concentration, Mean): 1670 ng/mL
- concentration at 72 h (30 mg/kg/day, 72-hour intravenous infusion at 30 mg/kg/day, time 72 h, read-out: Plasma concentration, individual animal): 1110 ng/mL
- concentration at 78 h (30 mg/kg/day, 72-hour intravenous infusion at 30 mg/kg/day, time 78 h, read-out: Plasma concentration, Mean): 736 ng/mL
- concentration at 78 h (30 mg/kg/day, 72-hour intravenous infusion at 30 mg/kg/day, time 78 h, read-out: Plasma concentration, individual animal): 698 ng/mL
- concentration at 84 h (30 mg/kg/day, 72-hour intravenous infusion at 30 mg/kg/day, time 84 h, read-out: Plasma concentration, Mean): 290 ng/mL
- concentration at 84 h (30 mg/kg/day, 72-hour intravenous infusion at 30 mg/kg/day, time 84 h, read-out: Plasma concentration, individual animal): 289 ng/mL
- concentration at 96 h (30 mg/kg/day, 72-hour intravenous infusion at 30 mg/kg/day, time 96 h, read-out: Plasma concentration, Mean): 172 ng/mL
- concentration at 96 h (30 mg/kg/day, 72-hour intravenous infusion at 30 mg/kg/day, time 96 h, read-out: Plasma concentration, individual animal): 139 ng/mL

— patent US20220202799A1, “PHARMACEUTICAL FORMULATIONS CONTAINING P2Y14 ANTAGONISTS” (priority 2019, published 2022)
